# Source: PubChem BioAssay AID624474 (Sanford-Burnham Center for Chemical Genomics, 2012)
# pIC50: −log10 of the molar value.
# Molecular target: Protein skinhead-1 (Caenorhabditis elegans) (UniProt P34707)
# Test: SKN-1 inhibitor hit potency, dose response, fluorescence ratio readout (AID 624474)
# Conditions: SKN-1 inhibitor fluorescence ratio assay
# Protein skinhead-1 (Caenorhabditis elegans), sequence (P34707 whole entry, looked up): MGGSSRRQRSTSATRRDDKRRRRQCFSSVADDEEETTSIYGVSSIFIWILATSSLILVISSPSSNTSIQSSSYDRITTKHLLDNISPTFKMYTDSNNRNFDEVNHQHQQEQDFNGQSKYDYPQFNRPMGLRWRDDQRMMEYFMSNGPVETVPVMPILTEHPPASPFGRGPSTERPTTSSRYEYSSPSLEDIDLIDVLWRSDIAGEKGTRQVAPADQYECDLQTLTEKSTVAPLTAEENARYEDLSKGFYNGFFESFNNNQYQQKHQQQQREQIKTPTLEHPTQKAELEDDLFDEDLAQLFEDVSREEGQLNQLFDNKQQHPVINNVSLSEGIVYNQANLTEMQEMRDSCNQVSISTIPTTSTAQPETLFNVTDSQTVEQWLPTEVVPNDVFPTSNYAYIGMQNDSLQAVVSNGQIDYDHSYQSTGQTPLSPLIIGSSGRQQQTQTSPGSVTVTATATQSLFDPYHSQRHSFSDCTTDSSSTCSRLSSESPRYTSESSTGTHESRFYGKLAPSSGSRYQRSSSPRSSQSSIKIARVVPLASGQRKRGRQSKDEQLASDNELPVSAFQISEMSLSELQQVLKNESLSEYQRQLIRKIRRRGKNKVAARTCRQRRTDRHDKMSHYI
row,pIC50,Structure (SMILES)
1,4.71,COc1cc(CNC(C)(C)CO)cc(Br)c1OCc1ccc(Cl)cc1
2,4.86,Brc1ccc(-c2nnc(-c3ccco3)o2)cc1
3,5.03,O=C(/C=C/c1ccc(Br)cc1)c1ccc(NC2=NCCCS2)cc1
4,4.51,Clc1ccc(Cn2cc(Br)cn2)cc1Cl
